How the values were obtained:
tetanus toxin = tetanus toxin (Clostridium tetani, UniProt P04958); settings: cited from earlier work
[1] = tested on: person with chronic diarrhea and autism; format: in vivo, human
Protocol: Diarrhea began after three 10 day courses of broad spectrum antimicrobials prescribed over a six week period for “chronic otitis media.” There was no blood or pus in the stool nor associated constitutional symptoms. There was profound behavioral and developmental deterioration, along with emergence of severe autistic features.
A 12 week therapeutic trial of oral vancomycin (125 mg QID) was begun with expanded observations by a pediatric neuropsychologist pre- and post-treatment. At baseline, the child was not on a special diet nor was […] taking any vitamin supplements. Three days after initiation of the vancomycin therapy, a hyperactivity pattern emerged which lasted for four days. […] became affectionate and relatively calm. […] promptly achieved toilet training and increased vocabulary. Follow-up behavioral observations after eight weeks of therapy noted an increase in on-task performance, compliance with parental requests, awareness of environmental surroundings, and persistence when engaging in positive activities. […] The child's educational therapies remained unchanged for both six months before and during the vancomycin trial. […] Though still improved over baseline, […] eventually lost most of the initial gains.

[2] = tested on: children with regressive onset autism; settings: in vivo
clostridia = settings: cited from earlier work
Bacteroides = settings: cited from earlier work
[3] = in vivo, po; cited from earlier work

Chain of tetanus toxin (P04958 whole entry, looked up): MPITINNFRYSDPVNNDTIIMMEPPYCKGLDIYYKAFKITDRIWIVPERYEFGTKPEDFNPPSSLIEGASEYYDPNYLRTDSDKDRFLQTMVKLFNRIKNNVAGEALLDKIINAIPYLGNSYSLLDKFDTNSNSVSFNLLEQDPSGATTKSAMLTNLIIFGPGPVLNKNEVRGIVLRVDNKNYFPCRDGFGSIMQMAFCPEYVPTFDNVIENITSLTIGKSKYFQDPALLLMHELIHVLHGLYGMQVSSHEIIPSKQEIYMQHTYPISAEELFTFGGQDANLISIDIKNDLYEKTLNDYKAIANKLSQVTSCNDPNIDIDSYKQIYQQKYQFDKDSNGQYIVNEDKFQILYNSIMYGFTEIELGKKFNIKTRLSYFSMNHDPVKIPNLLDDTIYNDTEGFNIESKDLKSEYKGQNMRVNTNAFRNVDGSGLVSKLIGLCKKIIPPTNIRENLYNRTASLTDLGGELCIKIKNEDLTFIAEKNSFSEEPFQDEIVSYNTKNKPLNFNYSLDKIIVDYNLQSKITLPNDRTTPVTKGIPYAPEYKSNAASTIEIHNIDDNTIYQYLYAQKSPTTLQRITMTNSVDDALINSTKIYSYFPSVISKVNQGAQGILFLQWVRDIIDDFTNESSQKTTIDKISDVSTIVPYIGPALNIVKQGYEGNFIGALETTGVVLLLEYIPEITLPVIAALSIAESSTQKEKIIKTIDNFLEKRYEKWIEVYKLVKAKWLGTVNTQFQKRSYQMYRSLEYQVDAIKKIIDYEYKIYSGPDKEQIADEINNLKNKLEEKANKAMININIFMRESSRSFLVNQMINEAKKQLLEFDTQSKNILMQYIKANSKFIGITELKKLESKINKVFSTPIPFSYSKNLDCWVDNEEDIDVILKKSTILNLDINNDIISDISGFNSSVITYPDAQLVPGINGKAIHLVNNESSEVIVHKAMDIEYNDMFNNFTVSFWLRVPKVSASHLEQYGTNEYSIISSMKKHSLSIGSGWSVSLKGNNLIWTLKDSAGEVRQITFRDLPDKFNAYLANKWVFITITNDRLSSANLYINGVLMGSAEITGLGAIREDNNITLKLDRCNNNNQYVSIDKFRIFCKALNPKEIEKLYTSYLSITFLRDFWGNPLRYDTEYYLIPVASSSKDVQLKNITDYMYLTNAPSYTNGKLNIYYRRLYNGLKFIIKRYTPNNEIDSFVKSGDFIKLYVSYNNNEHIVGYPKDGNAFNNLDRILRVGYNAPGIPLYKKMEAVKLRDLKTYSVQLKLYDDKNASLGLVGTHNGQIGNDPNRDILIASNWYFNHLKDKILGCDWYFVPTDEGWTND

Structure (SMILES) | Effect on tetanus toxin in vitro (tetanus toxin) | Repetitive and self-stimulatory behaviors ([1]; after eight weeks of therapy) | Course shortly after discontinuation ([1]; after vancomycin discontinuation) | Clinical response ([1]; oral vancomycin 125 mg QID, 12 weeks) | Analog rating scale, improvement in behavior: Wilcoxon Signed Ranks Z [2] | Analog rating scale, improvement in behavior: p [2] | Analog rating scale, improvement in communication: Wilcoxon Signed Ranks Z [2] | Analog rating scale, improvement in communication: p [2] | Analog ratings at long-term follow-up [2] | Basic blood, stool and urine tests [2] | Brief (1-4 days) period of hyperactivity: children affected [2] | Day of marked lethargy: subjects affected [2] | Blinded assessment of coded, paired videotapes: possible deterioration ([2]; po) | Activity against clostridia (clostridia) | Activity against Bacteroides (Bacteroides) | Concentration in the intestines [3]
C[C@H](CS)C(=O)N1CCC[C@H]1C(=O)O [Captopril] | inactivates | – | – | – | – | – | – | – | – | – | – | – | – | – | – | –
CN[C@H](CC(C)C)C(=O)N[C@H]1C(=O)N[C@@H](CC(N)=O)C(=O)N[C@H]2C(=O)N[C@H]3C(=O)N[C@H](C(=O)N[C@H](C(=O)O)c4cc(O)cc(O)c4-c4cc3ccc4O)[C@H](O)c3ccc(c(Cl)c3)Oc3cc2cc(c3O[C@@H]2O[C@H](CO)[C@@H](O)[C@H](O)[C@H]2O[C@H]2C[C@](C)(N)[C@H](O)[C@H](C)O2)Oc2ccc(cc2Cl)[C@H]1O [vancomycin] | – | significant reduction | behavioral deterioration | rapid and dramatic clinical improvement | −2.9 | 0.003 | 2.9 | 0.003 | returned towards baseline | unremarkable | six | One | one | effective | effective | high concentration
CC1(C)S[C@@H]2[C@H](NC(=O)[C@H](N)c3ccccc3)C(=O)N2[C@H]1C(=O)O [ampicillin] | – | – | – | – | – | – | – | – | – | – | – | – | – | active | – | –
